# In US10894777B2, “TG2 inhibitor piperazine compounds and uses thereof” (UNIVERSITY OF OTTAWA, priority 2016, dated 2021):
# Legend:
# SCC-13 cells = experiment: Migration (scratch wound closure) assay, SCC-13 cells; assay type: cell-based, human; settings: for cell migration (scratch wound closure): 0-12 h
# Description: (§1) Migration assay. SCC13-Control-shRNA or SCC13-TG2-shRNA2 cells (2×10^6) were plated in 10 cm dishes and grown as monolayer cultures in spheroid medium until confluent. A 10 μl pipette tip was used to prepare areas void of cells and the dishes were washed to remove the dislodged cells. Images were collected, at 0-18 h after the scratch using the 10× objective, and the width of the opening was measured as a function of time as an index of cell migration potential.
# as §1, with “Cells (2 million)” for “SCC13-Control-shRNA or SCC13-TG2-shRNA2 cells (2×10^6)”, “The ability of the cells to close the scratch wounds was monitored” for “Images were collected,”, “(Adhikary, G. et al., PLoS One 8:e84324, 2013).” for “potential.”
# TS565 neurospheres = experiment: Neurosphere growth, TS565 (proneural); assay type: cell-based, human; settings: 25 μM, 2 weeks
# Excerpt: Neurosphere cultures. TS543, TS565 and TS676, which represent the mesenchymal, proneural and classical glioblastoma subtypes respectively, based on transcriptomic and genomic analysis, were obtained from C. Brennan through the Monoclonal Antibody Core Facility at Memorial Sloan Kettering Cancer Center (Brennan, C. et al., PLoS One 4(11):e7752, 2009; Pyonteck, S. M. et al., Nature Med. 19(10):1264-72, 2013; Rohle, D. et al., Science 340(6132):626-30, 2013) and maintained in NeuroCult™ NS-A Proliferation Kit (Human) (Stem Cell Technologies) according to manufacturer's instructions. (NeuroCult Medium was supplemented with 20 ng/mL FGF, 50 ng/mL EGF and 0.0002% Heparin). To prevent neurosphere attachment to the bottom of the cell culture plates, Poly 2-hydroxyethyl methacrylate (PHM) was used. 6-well plates were coated with 1 mL/well of 1% PHM in ethanol (w/v). The plates were air dried in a sterile environment overnight and washed once with PBS and they were kept in the fridge in a sterile environment until use. For passaging, neurospheres were triturated according to instructions and 5,000 cells were seeded in each well in 2 mL medium. For treatments with TG2 inhibitors, cells were inoculated in medium containing 25 μM TG2 inhibitor or DMSO control. 200 μL of medium containing the 25 μM TG2 inhibitor or DMSO was added every other day. At the end of 2 weeks, 20-50 random microscopic images were captured for each group. The average volume of each sphere image was determined using Image J by a person blinded for neurosphere lines and treatments and volumes were calculated from the area data and used for comparison.
# purified human TG2 = target: T1, purified human TG2 (Homo sapiens, UniProt P21980); experiment: Native PAGE of TG2 conformation; assay type: biochemical; settings: NC9 120 μM, VA4 40 μM, VA5 40 μM with calcium, 90 min
# T1 sequence (P21980 1-687): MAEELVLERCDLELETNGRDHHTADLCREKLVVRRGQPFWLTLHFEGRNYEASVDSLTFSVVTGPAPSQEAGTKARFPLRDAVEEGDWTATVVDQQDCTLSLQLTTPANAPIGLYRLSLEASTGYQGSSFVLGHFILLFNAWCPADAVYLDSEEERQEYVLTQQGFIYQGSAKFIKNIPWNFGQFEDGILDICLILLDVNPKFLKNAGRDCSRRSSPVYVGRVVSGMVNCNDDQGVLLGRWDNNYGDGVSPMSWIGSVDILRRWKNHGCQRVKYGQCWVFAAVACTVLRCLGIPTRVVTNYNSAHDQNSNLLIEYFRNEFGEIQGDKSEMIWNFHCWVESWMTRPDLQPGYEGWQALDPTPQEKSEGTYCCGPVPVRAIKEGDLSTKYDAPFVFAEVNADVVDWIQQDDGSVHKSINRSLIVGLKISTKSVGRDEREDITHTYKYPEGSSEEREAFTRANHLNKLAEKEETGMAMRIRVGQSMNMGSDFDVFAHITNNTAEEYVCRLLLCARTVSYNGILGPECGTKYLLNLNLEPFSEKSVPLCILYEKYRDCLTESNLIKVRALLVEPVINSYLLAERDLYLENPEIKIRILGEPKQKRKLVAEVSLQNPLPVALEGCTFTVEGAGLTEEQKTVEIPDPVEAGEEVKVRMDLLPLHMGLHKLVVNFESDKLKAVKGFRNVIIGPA
# Description: Following this incubation, samples were run on polyacrylamide gel under non-denaturing conditions and in the presence of […] and magnesium. The gel was Coomassie stained and a picture of the gel is shown.
# Native PAGE. Native gel electrophoresis experiments were performed using a method similar to those described previously (Begg, G. E. et al., Proc. Natl. Acad. Sci. U.S.A. 103: 19683-19688, 2006; Pinkas, D. M. et al., PLoS Biol. 5: e327, 2007). Briefly, TG2 or inhibited TG2 (2.5 μM) was incubated for 1.5 h at room temperature in pre-incubation buffer (50 mM Tris, 5 mM DTT, 0.5 mM EDTA) at pH 7.0 with or without 100 μM GTP/1.0 mM MgCl2 or 5.0 mM CaCl2. Laemmli native loading buffer was added (1:1) and 1.5 μg of TG2 was loaded onto a 4-20% Tris-HCl ReadyGel (Bio-Rad) using Tris-glycine as the running buffer with 100 μM GTP/1.0 mM MgCl2. For 90 min, 120 V was applied at 4° C. The gel was stained with 0.5% Coomassie brilliant blue R-250 in 40% methanol/10% acetic acid and destained in 10% methanol/10% acetic acid.
# TG2 = target: T2, TG2 (Homo sapiens, UniProt P21980); experiment: BODIPY FL GTP-γ-S binding assay; settings: NC9 120 μM, VA4 40 μM, VA5 40 μM; plus 0.5 mM CaCl2; 1 μM GTP-γ-S FL BODIPY
# T2 sequence (P21980 1-687): T1 sequence (P21980 1-687)
# Description: BODIPY FL GTP-γ-S binding assay. GTP binding was performed using a similar method as reported previously (McEwen, D. P. et al., Anal. […] TG2 (9 μg) was incubated with BODIPY GTP-γ-S at 25° C. for 10 min in 100 mM MOPS (pH=7.0) and 5 mM MgCl2 followed by addition of H2O, inhibitor alone or inhibitor plus 0.5 mM CaCl2. […] After 45 min incubation, fluorescence was then measured on a microplate reader (ex: 490 nm, em: 520 nm).
# HaCaT cells = experiment: Spheroid formation assay, HaCaT cells; assay type: cell-based, human; settings: 20 μM, 48 h
# Description: Spheroid formation assay. Spheroid formation assays were as reported previously (Adhikary, G. et al., PLoS One 8:e84324, 2013), except that the spheroids were grown in 6-well ultralow attachment Costar cluster dishes (Corning).
Compound,cell migration (scratch wound closure) (SCC-13 cells),"sphere growth, TS565 (TS565 neurospheres)",conformation of inhibitor-bound TG2 (purified human TG2),GTP binding to TG2 (TG2),ECS cell spheroid formation (HaCaT cells),"cell migration (SCC-13 cells; 20 μM, 0-18 h)"
"C=CC(=O)NCCCC[C@H](NC(=O)OCc1ccccc1)C(=O)N1CCN(C(=O)c2cc3ccc(O)cc3oc2=O)CC1 [VA5, (S)-Benzyl(6-acrylamido-1-(4-(7-hydroxy-2-oxo-2H-chromene-3-carbonyl)piperazin-1-yl)-1-oxohexan-2-yl)carbamate]",inhibited cell migration,only mildly suppressive,open conformation,inhibit GTP binding to TG2 almost completely,suppressed,–
C=CC(=O)NCCCC[C@H](NC(=O)OCc1ccccc1)C(=O)NCCOCCOCCNS(=O)(=O)c1cccc2c(N(C)C)cccc12 [NC9],inhibited cell migration,suppressed sphere growth,open conformation,inhibit GTP binding to TG2 almost completely,suppressed,reduced
"C=CC(=O)NCCCC[C@H](NC(=O)OCc1ccccc1)C(=O)N1CCN(S(=O)(=O)c2cccc3c(N(C)C)cccc23)CC1 [VA4, (S)-benzyl(6-acrylamido-1-(4-((5-(dimethylamino)naphthalen-1-yl)sulfonyl)piperazin-1-yl)-1-oxohexan-2-yl)carbamate]",inhibited cell migration,suppressed sphere growth,open conformation,inhibit GTP binding to TG2 almost completely,suppressed,–
